Results on one molecule are retold here after US7569539B2, “Oral administration of calcitonin” (Novartis AG, priority 2002, dated 2009).

The nature of series [1]: Effect of meal timing on plasma sCT after oral sCT/5-CNAC tablet in human subjects (Example 7). The series is classed as in vivo. The conditions noted are these: for AUC / Cmax: both sexes, human, plasma, po, 1 mg, oral tablet 1 mg sCT + 5-CNAC disodium salt, plasma sCT; for AUC: read-out: Mean AUC ± SD; for Cmax: read-out: Mean Cmax ± SD. How it is done:
The effect of administration of a tablet formulation of sCT in combination with 5-CNAC disodium salt at various time intervals relative to meals is measured in human subjects.
The tablet formulation employed is a formulation according to Example 5, comprising 1 mg sCT and 5-CNAC disodium salt in an amount corresponding to […] of 5-CNAC.
The study employs a seven-period, randomized, open-label, balanced Latin-square, crossover design. Twenty-one human healthy adult subjects (7 males, 7 pre-menopausal females and 7 post-menopausal females), between the ages of 18 and 65 years of age are involved. Pre- and post-menopausal females are matched for height (±0.5 cm) and weight (±8%).
The study consists of a screening period (−21 to −2 days prior to dosing), a baseline period (24-hour period prior to dosing, or day −1), and a treatment period comprised of seven daily single-dose administrations. Subjects are instructed to fast for at least 8 hours prior to undergoing screening evaluations so that blood samples can be drawn for bioanalytical testing. At baseline, subjects are admitted to the study center at least 12 hours prior to dosing and remain domiciled until study completion (one day following the final dose of study drug, or study day 8). The interdose interval between each treatment will be approximately 24 hours. Subjects are randomized according to the treatment allocation schedule to receive a single oral dose under either fasted or fed conditions. Under fed conditions, meal times vary relative to a fixed dosing time, in order to assess the effect of varying meal and dose intervals on drug pharmacokinetics.
During the treatment period, subjects fast overnight for a minimum of 10 hours prior to dosing, except when the specified treatment condition requires a meal to be served pre-dose. Dosing occurs between 9 and 10 AM for seven consecutive days. Meal times vary around a fixed dosing interval over a seven-day treatment period in order to determine optimal dosing times relative to food intake. Included is the administration of study drug under fasting conditions, which will serve as the reference condition to assess drug pharmacokinetics under varying meal and dose intervals, as well as study drug administration with meals, to determine the extent of food interaction.
The order in which subjects are initially dosed remains consistent throughout the study, so that the first subject dosed in period 1 remains the first subject dosed across all treatment conditions. Except where fasting is the specified treatment condition, subjects receive a standardized FDA (or equivalent) high-fat breakfast at a different time each day relative to dosing. Subjects whose treatment assignment is to fast, continue fasting for at least four hours post-dose, after which they may receive a standard meal at the specified time. Sampling for pharmacokinetic assessments are performed at scheduled intervals for up to 8 hours post-dose. If pharmacokinetic sampling times coincide with the start of a meal, sampling occurs first. Subjects are discharged from the study center one day following the final dose of study drug (day 8), after the completion of all safety evaluations.
Pharmacokinetic blood sampling is performed each day at the following timepoints (unless otherwise specified, when sampling times coincide with the start of a meal, sampling is done first): pre-dose (5 mL blood on each treatment day, lithium-heparin tubes to yield plasma), and then 5, 10, 15, 30, 45, 60, 90, 120, 180 and 240 minutes post-dose (3 mL blood), lithium-heparin tube to yield plasma). For treatment conditions B, C, D and E (see table below) one additional sample (3 mL) is obtained at 5 minutes after the start of the meal. For treatment condition E, the 10 minute sample also represents the 5-minute post-meal sample. For treatment B only, one additional sample is obtained at 15 minutes after the start of the meal (i.e., at 75 minutes post-dose). […]

Assay in series [2]: as above
Format: in vivo. The settings on record: tablet 1 mg sCT + 5-CNAC disodium salt (equivalent to 200 mg 5-CNAC), 5 to 60 minutes prior to a meal instead of with a meal.

Setting [3] is: Treatment group A: after overnight fast.
[4] abbreviates: Treatment group B: 1 hour pre-meal.
[5] abbreviates: Treatment group C: 30 minutes pre-meal.
The mark [6] stands for this setting: Treatment group D: 15 minutes pre-meal.
Setting [7] is: Treatment group E: 5 minutes pre-meal.
[8] abbreviates: Treatment group G: 2.5 hours post-meal.

Where two headings read alike, the source gives them in different places.

In the case of `CC(C)C[C@H](NC(=O)[C@H](CCCCN)NC(=O)CNC(=O)[C@H](CC(C)C)NC(=O)[C@@H](NC(=O)[C@@H]1CSSC[C@H](N)C(=O)N[C@@H](CO)C(=O)N[C@@H](CC(N)=O)C(=O)N[C@@H](CC(C)C)C(=O)N[C@@H](CO)C(=O)N[C@@H]([C@@H](C)O)C(=O)N1)C(C)C)C(=O)N[C@@H](CO)C(=O)N[C@@H](CCC(N)=O)C(=O)N[C@@H](CCC(=O)O)C(=O)N[C@@H](CC(C)C)C(=O)N[C@@H](Cc1c[nH]cn1)C(=O)N[C@@H](CCCCN)C(=O)N[C@@H](CC(C)C)C(=O)N[C@@H](CCC(N)=O)C(=O)N[C@H](C(=O)N[C@@H](Cc1ccc(O)cc1)C(=O)N1CCC[C@H]1C(=O)N[C@@H](CCCNC(=N)N)C(=O)N[C@H](C(=O)N[C@@H](CC(N)=O)C(=O)N[C@H](C(=O)NCC(=O)N[C@@H](CO)C(=O)NCC(=O)N[C@H](C(=O)N1CCC[C@H]1C(N)=O)[C@@H](C)O)[C@@H](C)O)[C@@H](C)O)[C@@H](C)O` [sCT, salmon calcitonin], the “plasma levels of sCT” value was “maximum plasma levels” in series [1] (Groups C and D: administered either 15 or 30 minutes before a meal); “negligible” in series [1] (administration with a meal (Group F)). For the same molecule, the AUC in series [1] (setting [3]) came to 0.0663 ± 0.0422 ng·h/mL; in series [1] (setting [4]), 0.0634 ± 0.0379 ng·h/mL; in series [1] (setting [5]) it was 0.079 ± 0.0793 ng·h/mL; in series [1] (setting [6]), 0.0721 ± 0.0451 ng·h/mL; in series [1] (setting [7]) it was 0.0604 ± 0.0674 ng·h/mL; in series [1] (Treatment group F: with meal), 0.0126 ± 0.0185 ng·h/mL. In addition, in series [1] (setting [8]), the AUC turned out to be 0.0611 ± 0.114 ng·h/mL. For the same molecule, the Cmax was 0.139 ± 0.0743 ng/mL in series [1] (setting [3]); 0.136 ± 0.0647 ng/mL in series [1] (setting [4]); 0.162 ± 0.142 ng/mL in series [1] (setting [5]); 0.162 ± 0.0679 ng/mL in series [1] (setting [6]); 0.149 ± 0.151 ng/mL in series [1] (setting [7]); 0.024 ± 0.0267 ng/mL in series [1] (Treatment group F: with meal). Further, in series [1] (setting [8]), the Cmax was 0.0798 ± 0.134 ng/mL. Further, in series [2], the “increase (Cmax and AUC) in oral absorption” value was around 5 fold.
